Read-outs that look alike come from different tables or passages of the source.
Key:
MV4-11 cells = experiment: MV4-11 Cell Cytotoxicity Assay (CellTiter-Blue, 72 h); assay type: cell-based, human; conditions: Homo sapiens
How it was run: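 Cells seeded 24 h before treatment, then exposed 72 h at 37° C, 5% CO2 to inhibitors in triplicate, top concentration 50 μM with 1:2 serial dilutions (0.5% DMSO vehicle). Viability read by CellTiter-Blue fluorescence at 560/590 nm after 1 h.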

[1] = Reactivity Profiling with Glutathione (GSH), half-life by HPLC; conditions: 5 mM glutathione, 25° C., HPLC
[2] = system: normal human fibroblast (NHF) cells; experiment: NHF Cell Cytotoxicity Assay (CellTiter-Blue, 72 h), off-target effects; assay type: cell-based; conditions: Homo sapiens, Fibroblast; pooled NHF cells
How it was run: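 Normal human fibroblasts (1×10^4/well, 10% FBS medium) were treated after 24 h with inhibitor at 0.097656-50 μM for 72 h at 37° C. Viability was read by CellTiter-Blue fluorescence (560/590 nm), normalized to DMSO control, and IC50 obtained from a variable-slope log(inhibitor)-response fit of four replicates.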

glutathione (GSH) = experiment: Reactivity Profiling with Glutathione (GSH), half-life by HPLC; conditions: 5 mM glutathione (GSH) in IMDM with 10% FBS
[3] = MV4-11 cells, 72 h, CellTiter-Blue, read-out: IC50- MV-4-11

Tl/2- GSH [1]	half-life at 25 μM (glutathione (GSH))	Structure (SMILES)	IC50 (MV4-11 cells; [3])	IC50 (MV4-11 cells; MV4-11, MV-4-11 cells)	IC50 [2]
D (0.1<D<142)	–	CN(C(=O)CN(Cc1ccccc1C(F)(F)F)S(=O)(=O)c1c(F)c(F)c(F)c(F)c1F)c1ccc(C(=O)O)cc1N1CCOCC1 [Compound 2017, 4-(N-methyl-2-(N-(2-(trifluoromethyl)benzyl)-(2,3,4,5,6-pentafluoro-phenyl)sulfonamido)acetami-do)-3-morpholinobenzoic acid]	1000 to 3160 nM	–	–
D (0.1<D<142)	–	O=C(O)c1ccc(N(Cc2ccccc2)C(=O)CN(Cc2ccc(Cl)cc2)S(=O)(=O)c2c(F)c(F)c(F)c(F)c2F)cc1O [Compound 2004, 4-(N-benzyl-2-(N-(4-chlorobenzyl)-(2,3,4,5,6-pentafluorophenyl)sulfon-amido)acetamido)-2-hydroxybenzoic acid]	3160 to 100000 nM	–	–
B (247≤B<554)	–	CC(C)(C)c1cc(CN(C(=O)CN(Cc2ccc(Cl)cc2)S(=O)(=O)c2c(F)c(F)c(F)c(F)c2F)c2ccc(C(=O)O)c(O)c2)cc(C(C)(C)C)c1 [Compound 2001, 4-(2-(N-(4-chlorobenzyl)-(2,3,4,5,6-pentafluorophenyl)sulfon-amido)-N-(3,5-di-tert-butylbenzyl)acetamido)-2-hydroxybenzoic acid]	3160 to 100000 nM	–	–
D (0.1<D<142)	–	CN(C(=O)CN(Cc1ccccc1C(F)(F)F)S(=O)(=O)c1c(F)c(F)c(F)c(F)c1F)c1ccc(C(=O)O)cc1OC1CC1 [Compound 2016, 3-cyclopropoxy-4-(N-methyl-2-(N-(2-(trifluoromethyl)benzyl)-(2,3,4,5,6-pentafluoro-phenyl)sulfonamido)acetami-do)benzoic acid]	1000 to 3160 nM	–	–
C (142≤C<247)	–	CC(C)(C)c1cc(CN(C(=O)CN(Cc2ccccc2F)S(=O)(=O)c2c(F)c(F)c(F)c(F)c2F)c2ccc(C(=O)O)c(O)c2)cc(C(C)(C)C)n1 [Compound 2015, 4-(N-((2,6-di-tert-butylpyridin-4-yl)methyl)-2-(N-(2-fluorobenzyl)-(2,3,4,5,6-pentafluoro-phenyl)sulfonamido)acetami-do)-2-hydroxybenzoic acid]	3160 to 100000 nM	–	–
B (247≤B<554)	–	CC(C)(C)c1cc(CN(C(=O)CN(Cc2ccc(Cl)cc2)S(=O)(=O)c2c(F)c(F)c(F)c(F)c2F)c2ccc(C(=O)O)c(O)c2)cc(C2CCC2)c1 [Compound 2020, 4-(N-(3-(tert-butyl)-5-cyclobutylbenzyl)-2-(N-(4-chlorobenzyl)-(2,3,4,5,6-pentafluorophenyl)sulfon-amido)acetamido)-2-hydroxybenzoic acid]	3160 to 100000 nM	–	–
–	2.37 to 4.12 h	CCOc1cc(C(=O)O)ccc1N(Cc1cc(C2CC2)cc(C(C)(C)C)c1)C(=O)CN(Cc1ccccc1C#N)S(=O)(=O)c1c(F)c(F)c(F)c(F)c1F [Compound 1272, 4-(N-(3-(tert-butyl)-5-cyclopropylbenzyl)-2-((N-(2-cyanobenzyl)-2,3,4,5,6-pentafluorophenyl)sulfonamido)acetamido)-3-ethoxybenzoic acid]	–	0.01 to 316 nM	10 to 20 µM
–	9.23 to 1670 h	CC(C)Oc1cc(C(=O)O)ccc1N(Cc1cc(C2CC2)cc(C(C)(C)C)c1)C(=O)CN(Cc1ccc(F)cc1Cl)S(=O)(=O)c1c(F)c(F)c(F)c(F)c1F [Compound 1228, 4-(N-(3-(tert-butyl)-5-cyclopropylbenzyl)-2-(N-(2-chloro-4-fluorobenzyl)-(2,3,4,5,6-pentafluorophenyl)sulfon-amido)acetamido)-3-isopropoxybenzoic acid]	–	0.01 to 316 nM	20 to 30 µM
–	4.12 to 9.23 h	CC(C)(C)c1cc(CN(C(=O)CN(Cc2ncccc2C(F)(F)F)S(=O)(=O)c2c(F)c(F)c(F)c(F)c2F)c2ccc(C(=O)O)cc2OC2CC2)cc(C2CC2)c1 [Compound 1119, 4-(N-(3-(tert-butyl)-5-cyclopropylbenzyl)-2-(N-((3-(trifluoromethyl)pyridin-2-yl)methyl)-(2,3,4,5,6-pentafluoro-phenyl)sulfonamido)acetamido)-3-cyclopropoxybenzoic acid]	–	316 to 1000 nM	30 to 100 µM
–	2.37 to 4.12 h	Cc1cc(C(=O)O)ccc1N(Cc1cc(C2CC2)cc(C2CC2)c1)C(=O)CN(Cc1ccc(F)cc1Cl)S(=O)(=O)c1c(F)c(F)c(F)c(F)c1F [Compound 1219, 4-(2-(N-(2-chloro-4-fluorobenzyl)-(2,3,4,5,6-pentafluorophenyl)sulfon-amido)-N-(3,5-dicyclopropylbenzyl)acetamido)-3-methylbenzoic acid]	–	0.01 to 316 nM	0.001 to 10 µM
–	4.12 to 9.23 h	O=C(O)c1ccc(N(Cc2cc(C3CC3)cc(C3CC3)c2)C(=O)CN(Cc2ccc(F)cc2Cl)S(=O)(=O)c2c(F)c(F)c(F)c(F)c2F)c(C2CC2)c1 [Compound 1197, 4-(2-(N-(2-chloro-4-fluorobenzyl)-(2,3,4,5,6-pentafluorophenyl)sulfon-amido)-N-(3,5-dicyclopropylbenzyl)acetamido)-3-cyclopropylbenzoic acid]	–	0.01 to 316 nM	10 to 20 µM
–	0.00167 to 2.37 h	COc1cc(C(=O)O)ccc1N(Cc1cc(C2CC2)cc(C(C)(C)C)c1)C(=O)CN(Cc1ccncc1F)S(=O)(=O)c1c(F)c(F)c(F)c(F)c1F [Compound 1078, 4-(N-(3-(tert-butyl)-5-cyclopropylbenzyl)-2-(N-((3-fluoropyridin-4-yl)methyl)-(2,3,4,5,6-pentafluoro-phenyl)sulfonamido)acetamido)-3-methoxybenzoic acid]	–	316 to 1000 nM	0.001 to 10 µM
–	2.37 to 4.12 h	CCOc1cc(C(=O)O)cc(F)c1N(Cc1cc(C2CC2)cc(C2CC2)c1)C(=O)CN(Cc1ccccc1C#N)S(=O)(=O)c1c(F)c(F)c(F)c(F)c1F [Compound 1274, 4-(2-((N-(2-cyanobenzyl)-2,3,4,5,6-pentafluorophenyl)sulfonamido)-N-(3,5-dicyclopropylbenzyl)acetamido)-3-ethoxy-5-fluorobenzoic acid]	–	0.01 to 316 nM	10 to 20 µM
–	4.12 to 9.23 h	CC(C)Oc1cc(CN(C(=O)CN(Cc2ccc(F)cc2Cl)S(=O)(=O)c2c(F)c(F)c(F)c(F)c2F)c2ccc(C(=O)O)cc2OC2CC2)cc(C2CC2)c1 [Compound 1232, 4-(2-(N-(2-chloro-4-fluorobenzyl)-(2,3,4,5,6-pentafluorophenyl)sulfon-amido)-N-(3-cyclopropyl-5-isopropoxybenzyl)acetamido)-3-cyclopropoxybenzoic acid]	–	0.01 to 316 nM	10 to 20 µM

From patent publication US20230159445A1, “STAT INHIBITORY COMPOUNDS AND COMPOSITIONS” (JANPIX LIMITED, priority 2020, published 2023)
